The values below come from patent US20240252500A1, “Treatment of chronic pruritic dermatoses” (CymaBay Therapeutics, Inc., priority 2023, published 2024).

Like-named read-outs stand apart in the source and are kept apart here. A value given as a limit tells only on which side of the number the result lay.

For data set [1] the following is noted: early clinical studies; cited from earlier work.
The target of data set [2] is T1, peroxisome proliferator-activated receptor-γ (Homo sapiens, UniProt P37231).
T1 sequence (P37231 1-505): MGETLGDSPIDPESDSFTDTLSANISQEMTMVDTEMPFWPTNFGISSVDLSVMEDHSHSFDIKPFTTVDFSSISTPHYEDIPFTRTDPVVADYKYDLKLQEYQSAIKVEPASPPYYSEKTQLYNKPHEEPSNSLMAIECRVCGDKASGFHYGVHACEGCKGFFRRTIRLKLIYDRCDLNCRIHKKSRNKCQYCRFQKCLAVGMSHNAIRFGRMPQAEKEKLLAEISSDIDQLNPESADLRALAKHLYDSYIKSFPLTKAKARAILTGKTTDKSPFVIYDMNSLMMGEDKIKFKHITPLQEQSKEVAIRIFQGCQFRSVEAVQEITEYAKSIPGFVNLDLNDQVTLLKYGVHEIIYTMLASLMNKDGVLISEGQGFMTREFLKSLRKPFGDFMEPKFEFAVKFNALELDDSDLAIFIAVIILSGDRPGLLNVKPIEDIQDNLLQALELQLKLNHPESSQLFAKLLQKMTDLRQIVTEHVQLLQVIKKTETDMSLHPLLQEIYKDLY
The settings on record: Alzheimer's Drug Discovery Foundation Cognitive Vitality Report, November 2021; read-out: EC50 for PPARγ; cited from earlier work.

Data set [3] deals with atopic dermatitis-associated pruritus. The data set is described as follows: Oral treatment of pruritic atopic dermatitis. The format is in vivo, human. The procedure: (§1) Subjects are permitted their usual other medications. […] At each visit, the subjects are assessed for their disease symptoms and biomarkers, and assessed for pruritus. The subjects also maintain health diaries, which are reviewed at each visit.
Adult subjects with pruritic atopic dermatitis are treated orally with doses of 5, 10, 25, 50, and 100 mg/day of mavodelpar. Subjects are permitted their usual other medications. The subjects are assessed before the study, and at intervals during the study, such as every 4 weeks during the study and 4 weeks after the last dose of the mavodelpar therapy, for safety and pharmacodynamic evaluations. At each visit, the subjects are assessed for their disease symptoms and biomarkers, and assessed for atopic dermatitis-associated pruritus. The subjects also maintain health diaries, which are reviewed at each visit.

Data set [4] shares this test system. The data set is described as follows: Topical ointment treatment of pruritic atopic dermatitis. The format is in vivo, human. The protocol: as §1
Adult subjects with pruritic atopic dermatitis are treated topically with an ointment containing 1, 2, 5, or 10% of mavodelpar. Subjects are permitted their usual other medications. The subjects are assessed before the study, and at intervals during the study, such as every 4 weeks during the study and 4 weeks after the last dose of the mavodelpar therapy, for safety and pharmacodynamic evaluations. At each visit, the subjects are assessed for their disease symptoms and biomarkers, and assessed for pruritus. The subjects also maintain health diaries, which are reviewed at each visit.

The conditions of data set [5]: several animal models of type 2 diabetes; cited from earlier work.
Data set [6] addresses T2, peroxisome proliferator-activated receptor-α (Homo sapiens, UniProt Q07869).
T2 sequence (Q07869 1-468): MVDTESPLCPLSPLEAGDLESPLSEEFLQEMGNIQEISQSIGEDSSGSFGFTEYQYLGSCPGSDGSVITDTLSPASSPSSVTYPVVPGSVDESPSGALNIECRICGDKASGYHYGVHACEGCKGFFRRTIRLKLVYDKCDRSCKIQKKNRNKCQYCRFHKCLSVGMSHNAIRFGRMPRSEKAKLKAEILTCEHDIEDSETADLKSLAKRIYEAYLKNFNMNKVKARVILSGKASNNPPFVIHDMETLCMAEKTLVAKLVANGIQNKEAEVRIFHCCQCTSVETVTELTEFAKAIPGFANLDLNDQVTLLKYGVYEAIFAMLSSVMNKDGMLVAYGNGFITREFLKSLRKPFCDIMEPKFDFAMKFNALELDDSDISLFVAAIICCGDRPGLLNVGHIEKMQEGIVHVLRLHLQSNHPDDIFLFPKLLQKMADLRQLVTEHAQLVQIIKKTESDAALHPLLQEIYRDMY
The settings on record: Alzheimer's Drug Discovery Foundation Cognitive Vitality Report, November 2021; read-out: EC50 for PPARα; cited from earlier work.

The conditions of data set [7]: animal models and humans; cited from earlier work.
The conditions of data set [8]: PBC patients, 12 months, cited from earlier work.
For data set [9], the system named is human IL-31. The data set is described as follows: Serum human IL-31 in PXB mice (humanized liver). Type of data set: in vivo, PXB mouse. The settings on record: 2 h after last dose, day 0 0.13 pg/mL. The source says:
The PXB mouse (PhoenixBio Co., Ltd., Higashi-Hiroshima, Japan) is a chimeric mouse with a humanized liver, produced by transplanting human hepatocytes into the albumin enhancer/promoter-urokinase-type plasminogen activator complementary DNA transgenic/SCID mouse. The mouse has its liver repopulated by human hepatocytes at a ratio of more than 70%, typically 85-90%, as assessed by measuring the ratio of human albumin to mouse albumin in the blood. The transplanted human hepatocytes express a variety of human messenger RNA (mRNA) and proteins, in a similar manner to those of the normal human liver. […] The study was conducted at PhoenixBio. Male PXB mice aged about 25 weeks, kept in single animal cages and fed CRF1 mouse chow supplemented with AS primate chow for vitamin C supplementation (both from Oriental Yeast Co., Ltd., Tokyo, Japan), were randomized into groups (10/group) based on mean values for body weight and blood human albumin concentration. […] Two hours after the last dose, each mouse was anesthetized with isoflurane, at least 400 μL blood was collected by cardiac puncture, and the mouse sacrificed by exsanguination. The blood samples were left to coagulate at room temperature for at least 5 minutes, then centrifuged at 13200×g for 3 minutes at 4° C. to obtain serum, which was analyzed for human IL-31.

The test system of data set [10] is human IL-31. The settings on record: humanized liver murine model; cited from earlier work.
Data set [11] has as its system IL-31. The data set is described as follows: Serum IL-31 in PBC subjects, phase 3 study (ENHANCE, NCT03602560). The format is in vivo, human. The settings on record: before treatment. The source says:
The trial subjects in this phase 3 study were adult, male or female, with a diagnosis of PBC. Exclusion criteria included AST or ALT≥3×ULN, total bilirubin (TBIL)≥2×ULN, autoimmune hepatitis or a history of chronic viral hepatitis, PSC, the current use of fibrates or simvastatin, the use of colchicine, methotrexate, azathioprine, or systemic steroids in the previous two months, the use of an experimental treatment for PBC, and the use of an experimental or unapproved immunosuppressant. […] Serum IL-31 and its correlation with patient-reported pruritus numerical rating scale (NRS, 0-10) were assessed.

The nature of data set [12]: Oral bioavailability of seladelpar. As to conditions: in vivo.
Data set [13] is described as follows: Seladelpar oral studies in primary biliary cholangitis. The format is in vivo, human.
For a further data set, the system named is CD4 T cells. The data set is described as follows: IL-31 production by CD4 T cells under Th2-promoting conditions. The format is cell-based, human. The settings on record: both donors, both promoters; p<0.0001, Mann-Whitney test. The procedure:
CD4 T cells were enriched from peripheral blood mononuclear cells collected from two normal healthy donors, using the EasySep™ Human CD4+ T Cell Isolation Kit ([…] Technologies). 100,000 CD4 T cells were seeded in a U-bottom 96-well-plate well, and cultured in Th2-promoting conditions promoted by IL-4 or IL-33. […] On day 5 of culture, the anti-CD3/CD28 beads were diluted by adding 150 μL TCM. From days 5 to 13, the cells were cultured in the presence of the same reagents as for days 1 to 4 plus 50 ng/mL IL-2; and the cell culture medium was renewed every 2-3 days by a change of 50% volume of the medium. On day 13 or day 14, the expanded T cells in an individual well were split to four to six wells of 96-well-plate wells; and 5 ng/mL phorbol myristate acetate and 500 ng/mL ionomycin were added for 3 days to re-activate the T cells. The IL-31 concentration in the culture medium of each well was determined using the V-PLEX Human IL-31 Kit (Meso Scale Diagnostics, LLC; Rockville, MD, USA).

For data set [14], the target named is T2, peroxisome proliferator-activated receptor-α. As to the kind of experiment: PPARα agonism / selectivity. Type of data set: biochemical.
For data set [15], the system named is IL-31. The settings on record: NASH patients; cited from earlier work.

Consider `Cc1cc(OC/C=C(/c2ccc(F)cc2)c2ccc(C#CCN3CCOCC3)cc2)ccc1OCC(=O)O` [mavodelpar, (4-{[(2E)-3-(4-fluorophenyl)-3-{4-[3-(morpholin-4-yl)prop-1-yn-1-yl]phenyl}prop-2-en-1-yl]oxy}-2-methylphenoxy)acetic acid], for which the tolerability result in data set [1] was “well tolerated”. Also, the EC50 in [2] and in [6] was over 10 µM each time. For the same compound, the atopic dermatitis-associated pruritus result is on record as “improvement in their atopic dermatitis-associated pruritus” in data set [3] (oral 5, 10, 25, 50 and 100 mg/day mavodelpar); “improvement in their atopic dermatitis-associated pruritus” in [4] (ointment containing 1, 2, 5 or 10% mavodelpar). Moreover, in data set [5], the anti-diabetic effect result is reported as “anti-diabetic effect”. Besides, in data set [7], the high-density lipoprotein cholesterol entry was “significant increase in high-density lipoprotein cholesterol”. Also, the “low-density lipoprotein cholesterol and triglycerides” value in data set [7] is “lowering of low-density lipoprotein cholesterol and triglycerides”.
Turning to `CC[C@H]1[C@@H](O)[C@@H]2[C@H](CC[C@]3(C)[C@@H]([C@H](C)CCC(=O)O)CC[C@@H]23)[C@@]2(C)CC[C@@H](O)C[C@@H]12` [obeticholic acid], the “patients reporting severe pruritus” value in [8] (OCALIVA 10 mg arm) is reported as 23%; in data set [8] (OCALIVA titration arm), 19%. Also, the “serum human IL-31 concentration” value with human IL-31 [9] (gavage 10 mL/kg of 1 mg/mL once/day for 19 days) turned out to be 3.7 pg/mL. In addition, the “IL-31 mRNA expression in human hepatocytes” value with human IL-31 [10] was “increased”.
For `CCO[C@H](COc1ccc(C(F)(F)F)cc1)CSc1ccc(OCC(=O)O)c(C)c1` [seladelpar, [4-({(2R)-2-ethoxy-3-[4-(trifluoromethyl)phenoxy]propyl}sulfanyl)-2-methylphenoxy]acetic acid], the “mean serum IL-31, baseline” value is 3.8 pg/mL in the data set with IL-31 [11] (5 mg/day oral as L-lysine dihydrate salt) and 4.2 pg/mL in the data set on IL-31 [11] (10 mg/day oral as L-lysine dihydrate salt). Further, the oral bioavailability result in data set [12] is “high”. Moreover, in the data set on human IL-31 [9] (gavage 10 mL/kg of 10 mg/mL once/day for 19 days), the “serum human IL-31 concentration” value came to 0.19 pg/mL. Besides, the “efficacy in PBC” value in [13] (oral 5, 10, 50 and 200 mg/day) is “effective in the treatment of PBC”. Further, the “effect on cholestatic pruritus (exacerbation)” value in [13] (oral 5, 10, 50 and 200 mg/day in PBC) is “not to exacerbate cholestatic pruritus”. Besides, the “efficacy in cholestatic pruritus associated with PBC” value in data set [13] (oral 5 and 10 mg/day) was “effective in the treatment of cholestatic pruritus”. In addition, the atopic dermatitis-associated pruritus entry is reported as “improvement in their atopic dermatitis-associated pruritus” in data set [3] (oral 5, 10, 25 and 50 mg/day seladelpar); “improvement in their atopic dermatitis-associated pruritus” in data set [4] (ointment containing 1, 2, 5 or 10% seladelpar). Further, the “IL-31 production vs DMSO control” value in the data set with CD4 T cells is “reduced IL-31 production”. Besides, the “specificity for PPARδ compared with PPARα” value in data set [14] is on record as over 600 fold.
As for `O=C(O)c1ccnc(N2CC(O)(c3ccc(OCc4c(-c5c(Cl)cccc5Cl)noc4C4CC4)cc3Cl)C2)c1` [cilofexor], the “effect on IL-31” value in the data set with IL-31 [15] is given as “increased IL-31”.

A word on the EC50: it is the concentration needed to bring the measured effect to its halfway point.
